We go through eight molecules from DBAASP.

What all share (assay): ≥ marks a high value that may be exact or a test limit, other limits are often not marked, values filed in µg/mL are converted to µM
Test [1] relates to Staphylococcus aureus ATCC 43300.
Test [2] relates to Staphylococcus aureus ATCC 6538.
Test [3] concerns Escherichia coli ATCC 8739.
Test [4] has as its system Candida albicans ATCC 90028.
Test [5] concerns Escherichia coli ATCC 25922.
Test [6] deals with Enterococcus faecium ATCC 700221.
In test [7] the test system is Pseudomonas aeruginosa ATCC 27853.
Test [8] relates to Staphylococcus aureus ATCC 33591.
Test [9] relates to Listeria innocua.
For test [10], the system named is Leuconostoc lactis.
For test [11], the system named is Micrococcus luteus.
For test [12], the system named is Pasteurella multocida.
The subject of test [13] is Streptococcus uberis.
Test [14] has as its system Escherichia coli.
The subject of test [15] is Bacillus cereus.
Test [16] relates to Staphylococcus aureus.
For test [17], the system named is Staphylococcus epidermidis.
Test [18] concerns Psychrobacter faecalis X29.
In test [19] the test system is Bacillus licheniformis X39.
The subject of test [20] is Enterococcus faecalis 981.
The subject of test [21] is Rhodococcus rhodochrous X15.
Test [22] concerns Staphylococcus aureus ATCC 2592.
Test [23] deals with Candida albicans ATCC 2002.
For test [24], the system named is Staphylococcus aureus ATCC 25923.
The test system of test [25] is Staphylococcus carnosus KHS.
Test [26] concerns Staphylococcus epidermidis KCTC 1917.
The subject of test [27] is Pseudomonas aeruginosa KCTC 1637.
Test [28] deals with Escherichia coli KCTC 1682.
For test [29], the system named is Salmonella typhimurium KCTC 1926.
The test system of test [30] is Bacillus subtilis KCTC 3068.
Test [31] concerns Staphylococcus aureus KCTC 1621.

Molecules are shown by their SMILES. Values after ≈ are worked out from the molar mass of the structure shown. Bounds are passed on as bounds.

Turning to `CC[C@H](C)[C@H](NC(=O)[C@H](CCCCN)NC(=O)[C@@H](NC(=O)[C@H](CO)NC(=O)[C@H](CC(N)=O)NC(=O)[C@H](Cc1c[nH]c2ccccc12)NC(=O)[C@H](CC(C)C)NC(=O)CN)[C@@H](C)CC)C(=O)N[C@@H](C)C(=O)NCC(=O)N[C@@H](CCCCN)C(=O)N[C@@H](CCCCN)C(=O)N[C@@H](CC(C)C)C(=O)N[C@@H](Cc1ccccc1)C(=O)N[C@H](C(=O)N[C@@H](CC(N)=O)C(=O)N[C@H](C(=O)N[C@@H](CC(C)C)C(=O)N[C@@H](CC(=O)O)C(=O)N[C@@H](CCCCN)C(=O)N[C@H](C(=O)N[C@@H](CCCN=C(N)N)C(=O)N[C@@H](CO)C(=O)N[C@@H](CCCCN)C(=O)N[C@H](C(=O)N[C@@H](C)C(=O)NCC(=O)NCC(=O)N[C@@H](CO)C(=O)O)C(C)C)[C@@H](C)CC)C(C)C)C(C)C` [GLWNSIKIAGKKLFVNVLDKIRSKVAGGS], the MIC in test [1] is 25 µM (≈ 77.5 µg/mL); in [2], 6.3 µM (≈ 19.5 µg/mL); in test [3], 3.1 µM (≈ 9.61 µg/mL); in test [4], not below 100 µM.

In the case of `CC[C@H](C)[C@H](NC(=O)[C@H](CCCCN)NC(=O)[C@H](CCCCN)NC(=O)[C@H](CC(C)C)NC(=O)[C@H](CC(C)C)NC(=O)[C@H](CCCCN)NC(=O)[C@H](CCCCN)NC(=O)[C@@H](NC(=O)[C@H](CCCN=C(N)N)NC(=O)[C@H](CCCCN)NC(=O)[C@H](CC(C)C)NC(=O)[C@H](CC(C)C)NC(=O)CN)[C@@H](C)CC)C(=O)N[C@@H](CCCCN)C(=O)N[C@@H](CCCCN)C(=O)N[C@@H](CC(C)C)C(=O)N[C@@H](CC(C)C)C(N)=O` [GLLKRIKKLLKKIKKLL], the minimum inhibitory concentration (MIC) worked out at 12.5 µM (≈ 25.4 µg/mL) in [5], 6.3 µM (≈ 12.8 µg/mL) in [6], 12.5 µM (≈ 25.4 µg/mL) in test [7] and 12.5 µM (≈ 25.4 µg/mL) in test [8].

As to `CC[C@H](C)[C@H](NC(=O)[C@@H](NC(=O)[C@@H]1CCCN1C(=O)[C@@H](NC(=O)[C@@H](NC(=O)[C@H](Cc1cnc[nH]1)NC(=O)[C@@H]1CCCN1C(=O)[C@H](CC(C)C)NC(=O)[C@@H](NC(=O)[C@H](Cc1cnc[nH]1)NC(=O)[C@H](CCC(N)=O)NC(=O)[C@H](C)NC(=O)[C@@H](NC(=O)[C@H](CO)NC(=O)CNC(=O)[C@H](CC(C)C)NC(=O)[C@@H](NC(=O)[C@H](CO)NC(=O)[C@H](CC(C)C)NC(=O)[C@H](CC(C)C)NC(=O)CN)C(C)C)C(C)C)C(C)C)C(C)C)C(C)C)C(C)C)C(=O)N[C@@H](C)C(=O)N[C@@H](CCC(=O)O)C(=O)N[C@@H](Cc1cnc[nH]1)C(=O)N[C@@H](CC(C)C)C(N)=O` [GLLSVLGSVAQHVLPHVVPVIAEHL], the MIC is not below 38.7 µM in test [9]; 9.67 µM (≈ 25 µg/mL) in test [10]; 0.58 µM (≈ 1.5 µg/mL) in test [11]; 9.67 µM (≈ 25 µg/mL) in test [12]; not below 38.7 µM in test [13]; 38.7 µM (≈ 100 µg/mL) in test [14]. The MIC in test [15] was 19.3 µM (≈ 50 µg/mL); in test [16], 38.7 µM (≈ 100 µg/mL); in test [17], not below 38.7 µM.

For `CC[C@H](C)[C@H](NC(=O)[C@@H](NC(=O)CN)C(C)C)C(=O)N[C@@H](C)C(=O)N[C@@H](C)C(=O)N[C@@H](C)C(=O)N[C@@H](CCCCN)C(=O)N[C@@H](CCCCN)C(=O)N[C@H](C(=O)N[C@H](C(=O)N[C@@H](CC(N)=O)C(=O)N[C@H](C(=O)N[C@@H](CC(C)C)C(=O)N[C@@H](CCCCN)C(=O)N[C@@H](CC(N)=O)C(=O)N[C@@H](CC(C)C)C(=O)N[C@@H](Cc1ccccc1)C(N)=O)C(C)C)C(C)C)C(C)C` [GVIAAAKKVVNVLKNLF], the minimal inhibitory concentration (MIC) in test [9] is 14 µM (≈ 25 µg/mL); in [10], 1.68 µM (≈ 3 µg/mL); in test [11], 6.73 µM (≈ 12 µg/mL); in test [12], not below 56 µM; in test [13], 14 µM (≈ 25 µg/mL); in test [14] it was more than 56 µM. The minimum inhibitory concentration (MIC) in [15] worked out at 14 µM (≈ 25 µg/mL); in test [16] it was 14 µM (≈ 25 µg/mL); in [17], 6.73 µM (≈ 12 µg/mL).

For `CC[C@H](C)[C@H](NC(=O)[C@H](C)N)C(=O)N[C@@H](CC(C)C)C(=O)N[C@H](C(=O)N[C@H](C(=O)N[C@@H](CC(C)C)C(=O)N[C@@H](C)C(=O)N[C@@H](CC(N)=O)C(=O)N[C@@H](Cc1c[nH]c2ccccc12)C(=O)N[C@@H](C)C(=O)N[C@@H](CCCN=C(N)N)C(=O)N[C@@H](CCCCN)C(=O)N[C@@H](Cc1ccccc1)C(=O)N[C@@H](CC(C)C)C(N)=O)[C@@H](C)O)[C@@H](C)O` [AILTTLANWARKFL], the MIC in test [18] is not below 75 µM; in [19], 19 µM (≈ 30.7 µg/mL); in [20], not below 150 µM; in test [21], 4.8 µM (≈ 7.76 µg/mL); in test [22], not below 46.4 µM; in test [23], not below 75 µM. Besides, the results for the MIC in [24] and in test [25] were 37.5 µM (≈ 60.6 µg/mL) and not below 37.5 µM, respectively.

As for `CC[C@H](C)[C@H](NC(=O)[C@H](CCCN=C(N)N)NC(=O)[C@H](CCCCN)NC(=O)[C@H](CCCN=C(N)N)NC(=O)[C@@H](NC(=O)[C@H](CCCN=C(N)N)NC(=O)[C@@H](N)CCCCN)[C@@H](C)CC)C(=O)N[C@@H](CCCCN)C(=O)N[C@@H](CCCCN)C(=O)N[C@@H](Cc1c[nH]c2ccccc12)C(=O)N[C@@H](CC(C)C)C(=O)N[C@@H](CCCN=C(N)N)C(N)=O` [KRIRKRIKKWLR], the minimum inhibitory concentration (MIC) in test [26] worked out at 1 µM (≈ 1.68 µg/mL); in test [27], 4 µM (≈ 6.72 µg/mL); in test [28], 2 µM (≈ 3.36 µg/mL); in [29] it was 2 µM (≈ 3.36 µg/mL); in test [30] it was 2 µM (≈ 3.36 µg/mL); in test [31] it was 4 µM (≈ 6.72 µg/mL).

Turning to `CC[C@H](C)[C@H](NC(=O)[C@@H](NC(=O)[C@H](C)NC(=O)[C@H](C)NC(=O)[C@@H](NC(=O)[C@H](CCCCN)NC(=O)[C@H](CCCCN)NC(=O)[C@@H](NC(=O)[C@@H](NC(=O)[C@H](C)NC(=O)[C@H](Cc1ccccc1)NC(=O)[C@H](CC(C)C)NC(=O)[C@@H](N)CCCCN)C(C)C)[C@@H](C)CC)C(C)C)C(C)C)C(=O)NCC(=O)NCC(=O)N[C@@H](CC(C)C)C(N)=O` [KLFAVIKKVAAVIGGL], the minimal inhibitory concentration (MIC) was 15.4 µM (≈ 25 µg/mL) in [9]; 7.38 µM (≈ 12 µg/mL) in test [10]; not below 61.5 µM in test [11]; not below 61.5 µM in test [12]; not below 61.5 µM in test [13]; 61.5 µM (≈ 99.9 µg/mL) in test [14]. For the same molecule, the minimum inhibitory concentration (MIC) was not below 61.5 µM in [15], 30.7 µM (≈ 50 µg/mL) in test [16] and 15.4 µM (≈ 25 µg/mL) in test [17].

Consider `CC[C@H](C)[C@H](NC(=O)[C@H](CCCCN)NC(=O)[C@@H](NC(=O)[C@H](CO)NC(=O)[C@H](CC(N)=O)NC(=O)[C@H](Cc1c[nH]c2ccccc12)NC(=O)[C@H](CC(C)C)NC(=O)CN)[C@@H](C)CC)C(=O)N[C@@H](C)C(=O)NCC(=O)N[C@@H](CCCCN)C(=O)N[C@@H](CCCCN)C(=O)N[C@@H](CC(C)C)C(=O)N[C@@H](Cc1ccccc1)C(=O)N[C@H](C(=O)N[C@@H](CC(N)=O)C(=O)N[C@H](C(=O)N[C@@H](CC(C)C)C(=O)N[C@@H](CC(=O)O)C(=O)N[C@@H](CCCCN)C(=O)N[C@H](C(=O)N[C@@H](CCCN=C(N)N)C(=O)N[C@H]1CSSC[C@@H](C(=O)N[C@@H](CCCCN)C(=O)N[C@H](C(=O)N[C@@H](CO)C(=O)N2CCC[C@H]2C(=O)N[C@@H](CC(=O)O)C(=O)N[C@H](C(=O)N[C@@H](CCC(=O)O)C(=O)N[C@@H](Cc2ccc(O)cc2)C(=O)N[C@@H](Cc2cnc[nH]2)C(=O)N[C@@H](CCCCN)C(=O)O)C(C)C)[C@@H](C)O)NC(=O)CNC(=O)CNC(=O)[C@H](C)NC(=O)[C@H](C(C)C)NC(=O)[C@H](CCCCN)NC1=O)[C@@H](C)CC)C(C)C)C(C)C` [GLWNSIKIAGKKLFVNVLDKIRCKVAGGCKTSPDVEYHK], for which the minimum inhibitory concentration (MIC) in test [1] amounted to 100 µM (≈ 432 µg/mL); in test [2] it was 6.3 µM (≈ 27.2 µg/mL); in test [3], 6.3 µM (≈ 27.2 µg/mL).

The MIC is the least concentration at which growth counts as inhibited. Low values mean a more susceptible organism, high ones a less susceptible organism.
